Where “and” joins values, the source holds several entries; their conditions need not be identical. Equal values may be shown once.
How the values were obtained:
[1] = system: PPAR signaling pathway genes, maternal liver; experiment: Maternal liver (GD18) PPAR gene array, fold induction versus control; oral dosing GD14-18; rows per gene in dose order 1, 3, 10, 30, 62.5, 125, 250, 500 mg/kg/d; type: in vivo, Sprague-Dawley rats
Procedure: A total of three blocks of 15 dams per block were dosed once daily from GD14–18 with either water vehicle (control) or HFPO-DA to evaluate fetal and maternal effects (Figure 1A). The first block of dams was dosed with control, 62.5, 125, 250, or 500mg/kg HFPO-DA ( n=3 dams for each). The second and third blocks of dams were dosed with control, 1, 3, 10, or 30mg/kg HFPO-DA ( n=3 per dose per block). Total sample sizes were n=9 for control, n=6 for 1, 3, 10, 30mg/kg , and n=3 for 62.5, 125, 250, and 500mg/kg HFPO-DA. In the first two blocks, spanning the entire dose range, we evaluated fetal testis testosterone production, fetal testis gene expression, fetal and maternal liver gene expression, fetal body weight, and maternal serum thyroid hormone and lipid concentrations. In the third block, encompassing the lower dose range utilized here, we collected fetal plasma for measuring HFPO-DA concentrations. Across all three blocks we evaluated maternal weight gain during dosing, reproductive output (number of fetuses and resorptions), maternal serum HFPO-DA concentration, and maternal liver weight at necropsy.
For the first two blocks, spanning the full dose range, late gestation (GD18) dams were euthanized by decapitation at ∼2h after the final oral dose [ ∼0830–1000 hours Eastern Standard Time (EST)]. Trunk blood was collected and serum isolated via centrifugation ( 10,000×g for 15 min at 4°C) in vacutainer tubes, transferred to 1.5-mL microcentrifuge tubes and stored at −80°C . Dam liver weight was recorded and a sample of liver tissue was collected into a polypropylene microcentrifuge tube containing 500μL TRIzol Reagent (Invitrogen) on ice. Fetuses were removed and two randomly selected fetuses per litter were weighed. Fetal testes were collected from all male pups with a single testis from the first three males used for determination of ex vivo testosterone production and the remaining testes were homogenized and preserved in TRIzol Reagent for gene expression analysis. The liver was collected from a single, randomly selected fetus per dam/litter for gene expression analysis and transferred to a polypropylene microcentrifuge tube containing 500μL TRIzol Reagent (Invitrogen) on ice. Both dam and fetal liver samples were individually homogenized using a Bullet Blender (Next Advance) with 1-mm zirconium oxide beads, transferred to clean tubes, and stored at −80°C prior to RNA extraction (see below). Ex vivo fetal testis testosterone production was measured as previously reported ([Wilson et al. 2004b]) except the radioimmunoassay (RIA) utilized here was supplied by ALPCO (Catalog No. 72-TESTO-CT2, ALPCO). Briefly, one testis was isolated from each of three separate male fetuses in each litter and incubated in a humidified atmosphere at 37°C for 3 h in 500μL of M-199 media (phenol red–free; Hazelton Biologics, Inc.) supplemented with 10% dextran-coated charcoal-stripped fetal bovine serum (Hyclone Laboratories) in 24-well plates under gentle agitation. After incubation, media were removed and stored in siliconized microcentrifuge tubes at −80°C until RIA analyses, which were performed according to manufacturer specifications.
Gene expression in fetal testes and fetal/maternal livers was assessed using reverse transcriptase real-time PCR of cDNA synthesized from RNA extracted from sample homogenates. RNA extraction was conducted according to TRIzol Reagent manufacturer specifications using chloroform and isopropanol. Following extraction, RNA was purified using the RNeasy Mini Kit (Catalog No. 74104; Qiagen). RNA concentration and purity (260:280 ratio ≥1.8 ) were determined with a NanoDrop 2000 spectrophotometer (Thermo Scientific). For the fetal testes, a 96-well gene array plate was previously custom designed to contain 89 target genes and 3 housekeeping genes, an intra-assay control, a genomic DNA control, a reverse transcriptase control, and a positive PCR control [see Table S1; SABioscience; ([Hannas et al. 2012])]. […]

[2] = system: fetal testis; experiment: Fetal testis custom gene array for phthalate-like effects; type: in vivo, Sprague-Dawley rats; details: 62.5-500 mg/kg/d
Procedure: For the first two blocks, spanning the full dose range, late gestation (GD18) dams were euthanized by decapitation at ∼2h after the final oral dose [ ∼0830–1000 hours Eastern Standard Time (EST)]. Trunk blood was collected and serum isolated via centrifugation ( 10,000×g for 15 min at 4°C) in vacutainer tubes, transferred to 1.5-mL microcentrifuge tubes and stored at −80°C . Dam liver weight was recorded and a sample of liver tissue was collected into a polypropylene microcentrifuge tube containing 500μL TRIzol Reagent (Invitrogen) on ice. Fetuses were removed and two randomly selected fetuses per litter were weighed. […] Ex vivo fetal testis testosterone production was measured as previously reported ([Wilson et al. 2004b]) except the radioimmunoassay (RIA) utilized here was supplied by ALPCO (Catalog No. 72-TESTO-CT2, ALPCO). […]
Gene expression in fetal testes and fetal/maternal livers was assessed using reverse transcriptase real-time PCR of cDNA synthesized from RNA extracted from sample homogenates. […] RNA concentration and purity (260:280 ratio ≥1.8 ) were determined with a NanoDrop 2000 spectrophotometer (Thermo Scientific). […] PCR reactions were run using RT2 SYBR Green quantitative PCR (qPCR) Master Mix (SABioscience) on an iCycler iQ Real-Time Detection System (Bio-Rad) for fetal testes and on a CFX96 Touch Real-Time Detection System (Bio-Rad) for maternal and fetal livers. […]

O=C(O)C(F)(OC(F)(F)C(F)(F)C(F)(F)F)C(F)(F)F (stereo not drawn) [HFPO-DA, Hexafluoropropylene oxide dimer acid]
Acox3 ([1]; dose order): 1.3 fold and 0.9 fold and 1.2 fold and 1.1 fold and 1.0 fold
Acsl1 ([1]; dose order): 1.3 fold and 1.5 fold and 1.1 fold and 1.7 fold and 1.6 fold and 1.8 fold
Acsl4 ([1]; dose order): 1.0 fold and 0.7 fold and 0.9 fold and 1.3 fold and 1.2 fold
Angptl4 ([1]; dose order): 2.3 fold and 3.4 fold and 2.1 fold and 3.6 fold and 3.0 fold and 2.9 fold and 2.5 fold
Apoa1 ([1]; dose order): 0.9 fold and 1.0 fold and 0.7 fold
Apoe ([1]; dose order): 1.2 fold and 0.8 fold and 0.9 fold and 0.7 fold
Cd36 ([1]; dose order): 0.8 fold and 1.2 fold and 0.9 fold and 1.0 fold and 1.1 fold
Clu ([1]; dose order): 1.1 fold and 1.4 fold and 0.8 fold and 1.3 fold and 1.2 fold and 1.5 fold and 1.6 fold
Creb1 ([1]; dose order): 1.1 fold and 0.9 fold and 1.0 fold and 0.8 fold
Crebbp ([1]; dose order): 1.3 fold and 0.9 fold and 1.0 fold
Dgat1 ([1]; dose order): 1.1 fold and 1.3 fold and 1.2 fold and 1.5 fold and 1.6 fold and 1.8 fold and 1.9 fold
Ep300 ([1]; dose order): 1.3 fold and 1.4 fold and 0.8 fold and 1.1 fold and 1.0 fold
Etfdh ([1]; dose order): 1.2 fold and 1.6 fold and 1.4 fold and 1.5 fold
Fabp5 ([1]; dose order): 1.0 fold and 1.3 fold and 1.2 fold and 0.8 fold
Fabp7 ([1]; dose order): 2.0 fold and 1.1 fold and 1.9 fold and 1.8 fold and 1.3 fold and 1.7 fold
Gk ([1]; dose order): 1.2 fold and 1.1 fold and 1.3 fold and 1.4 fold and 0.8 fold
Hif1a ([1]; dose order): 1.2 fold and 1.0 fold and 1.1 fold and 1.3 fold
Hspd1 ([1]; dose order): 1.1 fold and 1.2 fold and 1.3 fold and 1.9 fold and 1.8 fold and 2.2 fold and 2.1 fold
Ilk ([1]; dose order): 1.2 fold and 0.9 fold and 1.1 fold and 1.0 fold
Klf10 ([1]; dose order): 1.8 fold and 2.0 fold and 1.5 fold and 2.5 fold and 2.3 fold and 2.4 fold
Lpin1 ([1]; dose order): 1.2 fold and 1.4 fold and 0.8 fold and 1.1 fold and 1.0 fold and 0.9 fold
Med1 ([1]; dose order): 1.2 fold and 1.3 fold and 0.7 fold and 1.0 fold and 0.8 fold and 0.9 fold and 1.1 fold
Ncoa3 ([1]; dose order): 1.4 fold and 0.8 fold and 1.0 fold and 0.9 fold
Ncoa6 ([1]; dose order): 1.4 fold and 1.2 fold and 1.1 fold and 0.7 fold and 0.8 fold and 0.9 fold
Nr1h3 ([1]; dose order): 1.1 fold and 1.5 fold and 0.8 fold and 1.6 fold and 1.3 fold
Pdpk1 ([1]; dose order): 0.9 fold and 1.0 fold and 0.8 fold and 1.1 fold
Pltp ([1]; dose order): 1.2 fold and 0.7 fold and 0.9 fold and 1.4 fold and 1.1 fold and 1.0 fold
Ppara ([1]; dose order): 0.8 fold and 0.7 fold and 0.6 fold and 1.0 fold and 0.9 fold and 1.1 fold
Ppargc1b ([1]; dose order): 1.1 fold and 1.3 fold and 0.9 fold and 0.8 fold and 0.7 fold
Pprc1 ([1]; dose order): 1.2 fold and 1.0 fold and 1.4 fold and 1.5 fold
Pten ([1]; dose order): 0.8 fold and 1.1 fold and 0.9 fold and 1.0 fold
Pyy ([1]; dose order): 1.6 fold and 1.3 fold and 1.1 fold and 1.2 fold and 2.0 fold and 2.1 fold and 1.8 fold
Rxra ([1]; dose order): 1.2 fold and 1.4 fold and 0.7 fold and 1.0 fold and 1.1 fold
Rxrb ([1]; dose order): 1.5 fold and 1.4 fold and 0.9 fold and 1.1 fold and 0.8 fold and 1.0 fold
Rxrg ([1]; dose order): 1.5 fold and 1.6 fold and 1.1 fold and 1.7 fold and 1.3 fold
Sirt1 ([1]; dose order): 1.0 fold and 1.1 fold and 0.8 fold and 0.9 fold
Slc27a1 ([1]; dose order): 1.5 fold and 1.6 fold and 0.9 fold and 1.4 fold and 1.1 fold and 1.0 fold and 1.3 fold
Slc27a2 ([1]; dose order): 1.3 fold and 1.8 fold and 2.1 fold and 2.2 fold and 2.3 fold
Slc27a4 ([1]; dose order): 1.3 fold and 1.5 fold and 0.8 fold and 1.0 fold and 1.1 fold and 0.9 fold
Tgs1 ([1]; dose order): 0.8 fold and 0.9 fold and 0.7 fold and 1.1 fold
number of up-regulated genes shared by maternal and fetal livers ([1]; rat, in vivo): 16 genes
fetal testis gene expression versus controls [2]: not significantly different from controls

Source: publication PMC6768323, “Adverse Maternal, Fetal, and Postnatal Effects of Hexafluoropropylene Oxide Dimer Acid (GenX) from Oral Gestational Exposure in Sprague-Dawley Rats” (Environmental Health Perspectives, 2019)
